Patent US8329645B2, “Polymyxin derivatives and uses thereof” (priority 2008, dated 2012)

What was measured:
[1] = system: Ps. aeruginosa ATCC 27853; assay: Sensitization to rifampin: growth inhibition around wells on LB plates containing rifampin; type: cell-based, Pseudomonas aeruginosa; details: 4 μg
[2] = system: Pseudomonas aeruginosa ATCC 27853; assay: Growth inhibition around wells on LB agar plates; type: cell-based; details: Ps. aeruginosa ATCC 27853
Method: (§1) From an overnight-grown culture of IH3080 on LB agar, a suspension of approx. 10^8 cells/ml was prepared in 0.9% NaCl. Aliquots of this suspension were then pipetted on the agar plates and the plates were gently shaken to spread the suspension evenly on the entire surface of the plate. Thereafter, the unabsorbed part of the suspension was removed by using a Pasteur pipette. After the surface had dried, small wells (diameter, 2 mm) were drilled on the plates (five wells per plate) by using a sterile sharp-edged narrow metal tube, single-use pipette tip, and vacuum suction. An alternative method used a swab to spread the inoculum. Samples (4 μl and 10 μl) of the peptide solution in 0.9% NaCl (at concentrations of 1 μg/ml and 0.1 μg/ml) were then pipetted to the wells and the sample fluids were allowed to absorb. Controls included 0.9% NaCl solution without the compound to be tested. The plates were then incubated for 18 h at 37° C. whereafter the diameters of growth inhibition zones around each well were measured; the diameter of the well itself was not reduced. Finally, the diameters were converted to surface areas of growth inhibition (in square mm).
(§2) Direct antibacterial activity of sixteen NAB compounds against Acinetobacter baumannii ATCC 19606 and Pseudomonas aeruginosa ATCC 27853 was tested by using the susceptibility determination method described in Example 2. Five compounds (NAB7062, NAB734, NAB737, NAB739, and NAB740) had very notable activity against A. baumannii. […] The antibacterial activity of NAB739 and NAB740 were as strong as or even stronger than that of polymyxin B.

E. coli IH3080 [3] = assay: Sensitization to rifampin: growth inhibition around wells on LB plates containing rifampin; type: cell-based, Escherichia coli; details: 4 μg of compound
Method: as §1

[4] = system: Acinetobacter baumannii ATCC 19606; assay: Growth inhibition around wells on LB agar plates; type: cell-based; details: A. baumannii ATCC 19606
Method: as §1, with “Samples (4 μl and 10 μl) of the peptide solution in 0.9% NaCl (at concentrations of 1 μg/ml and 0.1 μg/ml) were then pipetted to the wells and the sample fluids were allowed to absorb.” left out
as §2

A. baumannii ATCC 19606 = assay: Sensitization to rifampin: growth inhibition around wells on LB plates containing rifampin; type: cell-based, Acinetobacter baumannii; details: 4 μg
E. coli IH3080 [5] = assay: Growth inhibition around wells on LB agar plates; type: cell-based, Escherichia coli
Method: Peptides synthesized in Example 1, all carrying at least two (2) but not more than three (3) positive charges, were studied for their ability to inhibit the growth of E. coli. This was tested employing LB agar (LB Agar Lennox, Difco, BD, Sparks, Md., U.S.A) plates. The indicator organism E. coli IH3080 (K1:O018) was an encapsulated strain originally isolated from a neonate suffering from meningitis (Vaara et al. 1984) and obtained from National Public Health Institute, Helsinki, Finland.
as §1, with “Samples (4 μl and 10 μl) of the peptide solution in 0.9% NaCl (at concentrations of 1 μg/ml and 0.1 μg/ml) were then pipetted to the wells and the sample fluids were allowed to absorb.” left out

| Substance | growth inhibition around a well in the presence of rifampin ([1]; rifampin 0 μg/ml) [square millimeters] | growth inhibition around a well in the presence of rifampin ([1]; rifampin 0.1 μg/ml) [square millimeters] | growth inhibition around a well in the presence of rifampin ([1]; rifampin 0.3 μg/ml) [square millimeters] | growth inhibition around a well ([2]; 4 μg) [square millimeters] | growth inhibition around a well ([2]; 10 μg) [square millimeters] | growth inhibition around a well in the presence of rifampin (E. coli IH3080 [3]; rifampin 0 μg/ml) [square millimeters] | growth inhibition around a well in the presence of rifampin (E. coli IH3080 [3]; rifampin 0.1 μg/ml) [square millimeters] | growth inhibition around a well in the presence of rifampin (E. coli IH3080 [3]; rifampin 1.0 μg/ml) [square millimeters] | growth inhibition around a well ([4]; 4 μg) [square millimeters] | growth inhibition around a well ([4]; 10 μg) [square millimeters] | growth inhibition around a well in the presence of rifampin (A. baumannii ATCC 19606; rifampin 0 μg/ml) [square millimeters] | growth inhibition around a well in the presence of rifampin (A. baumannii ATCC 19606; rifampin 0.1 μg/ml) [square millimeters] | growth inhibition around a well in the presence of rifampin (A. baumannii ATCC 19606; rifampin 0.3 μg/ml) [square millimeters] | growth inhibition around a well (E. coli IH3080 [5]; 4 μg of compound per well) [square millimeters] | growth inhibition around a well (E. coli IH3080 [5]; 10 μg of compound per well) [square millimeters] |
| --- | --- | --- | --- | --- | --- | --- | --- | --- | --- | --- | --- | --- | --- | --- | --- |
| OA-Ala-Thr-DSer-cy[Dab-Dab-DPhe-Leu-Dab-Dab-Thr-] [NAB 749] | 20 | 20 | 13 | 20 | 28 | 133 | 133 | 177 | 20 | 38 | 20 | 154 | 201 | 113 | 158 |
| OA-Thr-Abu-cy[Dab-Dab-DLeu-Leu-Dab-Dab-Thr-] [NAB 718] | 0 | 0 | 0 | 0 | 0 | 0 | 13 | 133 | 0 | 0 | 0 | 0 | 38 | 0 | 0 |
| OA-Thr-Abu-cy[Dab-Dab-DPhe-Leu-Dab-Dab-Leu-] [NAB 719] | 0 | 0 | 7 | 0 | 0 | 7 | 79 | 95 | 0 | 0 | 0 | 154 | 133 | 7 | 50 |
| OA-Thr-Asn-cy[Dab-Dab-DPhe-Leu-Dab-Dab-Thr-] [NAB 746] | 0 | 7 | 0 | 0 | 20 | 0 | 79 | 95 | 0 | 0 | 0 | 64 | 95 | 0 | 13 |
| OA-Thr-DAla-cy[Dab-Dab-DPhe-Thr-Dab-Dab-Thr-] [NAB 738] | 0 | – | 13 | 0 | 0 | 0 | 133 | 177 | 0 | 0 | 0 | 95 | 154 | 0 | 64 |
| OA-Thr-Dab-cy[Dab-Dab-DPhe-Leu-Abu-Dab-Thr-] [NAB 716] | 0 | 0 | 0 | 0 | 0 | 13 | 133 | 165 | 0 | 0 | 0 | 0 | 64 | – | 64 |
| OA-Thr-Dab-cy[Dab-Dab-DPhe-Leu-Dab-Abu-Thr-] [NAB 717] | 0 | 0 | 0 | 0 | 0 | 0 | 71 | 95 | 0 | 0 | 0 | 0 | 50 | 0 | 0 |
